Assay results taken from patent US10202361B2, “Pyridazinones as herbicides” (E I DU PONT DE NEMOURS AND COMPANY, priority 2014, dated 2019).
Where two headings read alike, the source gives them in different places.

Columns and labels:
Assay type in all cases: in vivo
[1] = test system: johnsongrass (Sorghum halepense); assay: Test C pre-/postemergence greenhouse herbicide test; conditions: Sorghum halepense, Johnsongrass, read-out: Plant response rating; for pest or weed control at 31 g/ha: 31 g ai/ha; for pest or weed control at 62 g/ha: 62 g ai/ha; for pest or weed control at 125 g/ha: 125 g ai/ha; for pest or weed control at 250 g/ha: 250 g ai/ha
Method in brief: (§1)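 Seeds sown in loam soil–sand blend were treated preemergence; plants at 2 to 18 cm (1- to 4-leaf stage) in peat-based medium were treated postemergence. Test chemicals were formulated in a non-phytotoxic solvent mixture with surfactant. After 13 to 15 d in greenhouse, injury was rated visually versus controls, 0 (no effect) to 100 (complete control).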

[2] = test system: ragweed (common ragweed, Ambrosia elatior); assay: as above; conditions: Ambrosia artemisiifolia, Ragweed, read-out: Plant response rating; for pest or weed control at 31 g/ha: 31 g ai/ha; for pest or weed control at 62 g/ha: 62 g ai/ha; for pest or weed control at 125 g/ha: 125 g ai/ha; for pest or weed control at 250 g/ha: 250 g ai/ha
Method in brief: as §1

[3] = test system: galium (catchweed bedstraw, Galium aparine); assay: as above; conditions: Galium, read-out: Plant response rating; for pest or weed control at 31 g/ha: 31 g ai/ha; for pest or weed control at 62 g/ha: 62 g ai/ha; for pest or weed control at 125 g/ha: 125 g ai/ha; for pest or weed control at 250 g/ha: 250 g ai/ha
Method in brief: as §1

[4] = test system: kochia (Kochia scoparia); assay: as above; conditions: Postemergence
Method in brief: as §1

[5] = test system: barnyardgrass (Echinochloa crus-galli); assay: as above; conditions: Barnyardgrass
Method in brief: as §1

[6] = test system: oat, wild (wild oat, Avena fatua); assay: as above; conditions: Postemergence
Method in brief: as §1

[7] = test system: waterhemp (common waterhemp, Amaranthus rudis); assay: as above; conditions: Waterhemp
Method in brief: as §1

[8] = test system: barnyardgrass (Echinochloa crus-galli); assay: Test B flooded paddy test; conditions: Echinochloa crus-galli, 312 h; Flood, 125 g ai/ha; scale of 0 to 100, 0 is no effect, 100 is complete control; 13 to 15 d; read-out: Plant response rating, Barnyardgrass
Method in brief: (§2)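 Plants were raised to the 2-leaf stage, then pots were flooded to 3 cm above the soil and the test compound was applied directly into the paddy water, with that depth held throughout. After 13 to 15 d in a greenhouse, injury was rated visually against untreated controls on a 0–100 scale (0 = no effect, 100 = complete control).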

[9] = test system: rice (Oryza sativa); assay: Test B flooded paddy test; conditions: Oryza sativa, 312 h; Flood, 125 g ai/ha; scale of 0 to 100, 0 is no effect, 100 is complete control; 13 to 15 d; read-out: Plant response rating, Rice
Method in brief: as §2

[10] = test system: ducksalad (Heteranthera limosa); assay: Test B flooded paddy test; conditions: Heteranthera limosa, 312 h; Flood, 125 g ai/ha; scale of 0 to 100, 0 is no effect, 100 is complete control; 13 to 15 d; read-out: Plant response rating, Ducksalad
Method in brief: as §2

[11] = test system: sedge, umbrella (small-flower umbrella sedge, Cyperus difformis); assay: Test B flooded paddy test; conditions: Cyperus difformis, 312 h; Flood, 125 g ai/ha; scale of 0 to 100, 0 is no effect, 100 is complete control; 13 to 15 d; read-out: Plant response rating, Sedge, Umbrella
Method in brief: as §2

[12] = test system: chickweed (common chickweed, Stellaria media); assay: Test C postemergence greenhouse herbicide test

Compound: COc1cc(=O)n(-c2ccc(C(F)(F)F)cc2)nc1Cc1ccnc(C(F)(F)F)c1 [Compound 16, 5-methoxy-2-[4-(trifluoromethyl)phenyl]-6-[[2-(trifluoromethyl)-4-pyridinyl]methyl]-3(2H)-pyridazinone]
- pest or weed control at 31 g/ha ([1]; post-emergence, Postemergence): 10%
- pest or weed control at 62 g/ha ([1]; post-emergence, Postemergence): 10%
- pest or weed control at 125 g/ha ([1]; post-emergence, Postemergence): 20%
- pest or weed control at 250 g/ha ([1]; post-emergence, Postemergence): 35%
- pest or weed control at 31 g/ha ([1]; pre-emergence, Preemergence): 60%
- pest or weed control at 62 g/ha ([1]; pre-emergence, Preemergence): 75%
- pest or weed control at 125 g/ha ([1]; pre-emergence, Preemergence): 85%
- pest or weed control at 250 g/ha ([1]; pre-emergence, Preemergence): 98%
- pest or weed control at 31 g/ha ([2]; post-emergence, Postemergence): 15%
- pest or weed control at 62 g/ha ([2]; post-emergence, Postemergence): 25%
- pest or weed control at 125 g/ha ([2]; post-emergence, Postemergence): 60%
- pest or weed control at 250 g/ha ([2]; post-emergence, Postemergence): 60%
- pest or weed control at 31 g/ha ([2]; pre-emergence, Preemergence): 20%
- pest or weed control at 62 g/ha ([2]; pre-emergence, Preemergence): 65%
- pest or weed control at 125 g/ha ([2]; pre-emergence, Preemergence): 65%
- pest or weed control at 250 g/ha ([2]; pre-emergence, Preemergence): 100%
- pest or weed control at 31 g/ha ([3]; post-emergence, Postemergence): 80%
- pest or weed control at 62 g/ha ([3]; post-emergence, Postemergence): 80%
- pest or weed control at 125 g/ha ([3]; post-emergence, Postemergence): 90%
- pest or weed control at 250 g/ha ([3]; post-emergence, Postemergence): 90%
- pest or weed control at 31 g/ha ([3]; pre-emergence, Preemergence): 70%
- pest or weed control at 62 g/ha ([3]; pre-emergence, Preemergence): 98%
- pest or weed control at 125 g/ha ([3]; pre-emergence, Preemergence): 100%
- pest or weed control at 250 g/ha ([3]; pre-emergence, Preemergence): 100%
- Plant response rating ([4]; 31 g ai/ha): 90
- Plant response rating ([4]; 62 g ai/ha): 90
- Plant response rating ([4]; 125 g ai/ha): 90
- Plant response rating ([4]; 250 g ai/ha): 90
- Plant response rating ([5]; Postemergence, 31 g ai/ha): 10
- Plant response rating ([5]; Postemergence, 62 g ai/ha): 10
- Plant response rating ([5]; Postemergence, 125 g ai/ha): 25
- Plant response rating ([5]; Postemergence, 250 g ai/ha): 35
- Plant response rating ([5]; Preemergence, 31 g ai/ha): 75
- Plant response rating ([5]; Preemergence, 62 g ai/ha): 80
- Plant response rating ([5]; Preemergence, 125 g ai/ha): 95
- Plant response rating ([5]; Preemergence, 250 g ai/ha): 100
- Plant response rating ([6]; 31 g ai/ha): 15
- Plant response rating ([6]; 62 g ai/ha): 30
- Plant response rating ([6]; 125 g ai/ha): 40
- Plant response rating ([6]; 250 g ai/ha): 60
- Plant response rating ([7]; Postemergence, 31 g ai/ha): 80
- Plant response rating ([7]; Postemergence, 62 g ai/ha): 90
- Plant response rating ([7]; Postemergence, 125 g ai/ha): 95
- Plant response rating ([7]; Postemergence, 250 g ai/ha): 98
- Plant response rating ([7]; Preemergence, 62 g ai/ha): 100
- Plant response rating ([7]; Preemergence, 125 g ai/ha): 100
- Plant response rating ([7]; Preemergence, 250 g ai/ha): 100
- pest or weed control at 125 g/ha [8]: 45%
- plant injury at 125 g/ha [9]: 35%
- pest or weed control at 125 g/ha [10]: 20%
- pest or weed control at 125 g/ha [11]: 80%
- Plant response rating ([12]; 31 g ai/ha): 80
- Plant response rating ([12]; 62 g ai/ha): 90
- Plant response rating ([12]; 125 g ai/ha): 90
- Plant response rating ([12]; 250 g ai/ha): 98

Compound: COc1cc(=O)n(-c2ccc(F)cc2)nc1Cc1ccnc(C(F)(F)F)c1 [Compound 17, 2-(4-fluorophenyl)-5-methoxy-6-[[2-(trifluoromethyl)-4-pyridinyl]methyl]-3 (2H)-pyridazinone]
- pest or weed control at 31 g/ha ([1]; post-emergence, Postemergence): 5%
- pest or weed control at 62 g/ha ([1]; post-emergence, Postemergence): 5%
- pest or weed control at 125 g/ha ([1]; post-emergence, Postemergence): 5%
- pest or weed control at 250 g/ha ([1]; post-emergence, Postemergence): 65%
- pest or weed control at 31 g/ha ([1]; pre-emergence, Preemergence): 70%
- pest or weed control at 62 g/ha ([1]; pre-emergence, Preemergence): 95%
- pest or weed control at 125 g/ha ([1]; pre-emergence, Preemergence): 98%
- pest or weed control at 250 g/ha ([1]; pre-emergence, Preemergence): 100%
- pest or weed control at 31 g/ha ([2]; post-emergence, Postemergence): 40%
- pest or weed control at 62 g/ha ([2]; post-emergence, Postemergence): 70%
- pest or weed control at 125 g/ha ([2]; post-emergence, Postemergence): 80%
- pest or weed control at 250 g/ha ([2]; post-emergence, Postemergence): 85%
- pest or weed control at 31 g/ha ([2]; pre-emergence, Preemergence): 35%
- pest or weed control at 62 g/ha ([2]; pre-emergence, Preemergence): 65%
- pest or weed control at 125 g/ha ([2]; pre-emergence, Preemergence): 80%
- pest or weed control at 250 g/ha ([2]; pre-emergence, Preemergence): 98%
- pest or weed control at 31 g/ha ([3]; post-emergence, Postemergence): 60%
- pest or weed control at 62 g/ha ([3]; post-emergence, Postemergence): 70%
- pest or weed control at 125 g/ha ([3]; post-emergence, Postemergence): 75%
- pest or weed control at 250 g/ha ([3]; post-emergence, Postemergence): 85%
- pest or weed control at 31 g/ha ([3]; pre-emergence, Preemergence): 100%
- pest or weed control at 62 g/ha ([3]; pre-emergence, Preemergence): 100%
- pest or weed control at 125 g/ha ([3]; pre-emergence, Preemergence): 100%
- pest or weed control at 250 g/ha ([3]; pre-emergence, Preemergence): 100%
- Plant response rating ([4]; 31 g ai/ha): 80
- Plant response rating ([4]; 62 g ai/ha): 90
- Plant response rating ([4]; 125 g ai/ha): 90
- Plant response rating ([4]; 250 g ai/ha): 90
- Plant response rating ([5]; Postemergence, 31 g ai/ha): 5
- Plant response rating ([5]; Postemergence, 62 g ai/ha): 5
- Plant response rating ([5]; Postemergence, 125 g ai/ha): 10
- Plant response rating ([5]; Postemergence, 250 g ai/ha): 35
- Plant response rating ([5]; Preemergence, 31 g ai/ha): 80
- Plant response rating ([5]; Preemergence, 62 g ai/ha): 90
- Plant response rating ([5]; Preemergence, 125 g ai/ha): 100
- Plant response rating ([5]; Preemergence, 250 g ai/ha): 100
- Plant response rating ([6]; 31 g ai/ha): 10
- Plant response rating ([6]; 62 g ai/ha): 15
- Plant response rating ([6]; 125 g ai/ha): 40
- Plant response rating ([6]; 250 g ai/ha): 45
- Plant response rating ([7]; Postemergence, 31 g ai/ha): 60
- Plant response rating ([7]; Postemergence, 125 g ai/ha): 85
- Plant response rating ([7]; Postemergence, 250 g ai/ha): 85
- Plant response rating ([7]; Preemergence, 62 g ai/ha): 100
- Plant response rating ([7]; Preemergence, 125 g ai/ha): 100
- Plant response rating ([7]; Preemergence, 250 g ai/ha): 100
- pest or weed control at 125 g/ha [8]: 90%
- plant injury at 125 g/ha [9]: 70%
- pest or weed control at 125 g/ha [10]: 90%
- pest or weed control at 125 g/ha [11]: 90%
- Plant response rating ([12]; 31 g ai/ha): 70
- Plant response rating ([12]; 62 g ai/ha): 85
- Plant response rating ([12]; 125 g ai/ha): 85
- Plant response rating ([12]; 250 g ai/ha): 95
